The text below walks through data of US8409820B2, “Kinase sensors” (Massachusetts Institute of Technology, priority 2009, dated 2013).

Common to all, as to format: physicochemical
The nature of series [1]: Fluorescence analysis of 8-hydroxyquinoline derivatives in the presence of excess Mg2+ under buffered aqueous conditions. To be noted: 10 μM compound; for λem / λex: 10 mM MgCl2, 150 mM NaCl, 50 mM HEPES (pH 7.4), 25° C. On the procedure:
(§1) This example describes the synthesis and screening of Oxn derivatives. A selection of substituted hydroxyquinoline derivatives related to a sulfonamide derivative (FIG. 1, complex 1), but bearing different acceptor groups at position 5 (FIG. 1, complexes 2-7) was prepared using previously described methods. These analogs were screened for fluorescence in the presence of excess Mg^2+ and under buffered aqueous conditions. FIG. 1 lists fluorescence data for compounds 1-7. Spectra were acquired in 150 mM NaCl, 50 mM HEPES (pH 7.4), 25° C. with 10 μM 1-7 and 10 mM MgCl2. Excitation of all species is provided at λmax […].
Azide 8 (FIG. 2) was prepared using previously reported methods. […] In the presence of catalytic Cu(I) and ascorbic acid, 8 reacted readily at room temperature with 1-ethynylcyclohexene (9a) in DMF/4-methylpiperidine (8:2) to afford the cycloaddition product 10a in essentially quantitative yield. […] The fluorescence properties of the triazole-substituted quinolines were investigated for the products from the 1,3-dipolar cycloaddition reaction of 8 with 21 additional alkynes (9b-v) (FIG. 2).
(§2) The fluorophores were then qualitatively compared in a 96-well plate (transilluminator; λex=365 nm) to identify promising compounds (FIG. 3) and were further subjected to quantitative analysis in a fluorescence plate reader (FIG. 8). In FIG. 8, the quantum yields of selected fluorophores were calculated with reference to quinine sulphate (in […] H2SO4) as a standard (vide infra). Compound 10u has ε355=7905 cm^−1M^−1 (vide infra). The excitation and emission wavelengths of the triazole products (10b-v, λex=360-375 nm, λem=510-530 nm) were improved compared to those for Sox (1, λex=360 nm, λem=485 nm, Φ=0.342, ε355=8,247 cm^−1M^−1). Based on the preliminary screening, selected targets were then synthesized in larger quantities and the quantum yields of the corresponding hydroxyquinoline derivatives were determined. Compared to 10a (Φ=0.033) a 3.5-fold improvement in quantum yield was obtained in the case of the bromide 10u (λex=375 nm, λem=525 nm, Φ=0.111, ε355=7,905 cm^−1M^−1). In view of the fluorescent properties of this derivative, it was chosen for use as a chelation-sensitive fluorophore to prepare probes for mitogen-activated protein kinase-activated protein kinase-2 (MK2), and sarcoma kinase (Src), used as models of Ser/Thr and Tyr kinases, respectively. For the purposes of comparison, the analogous fluorescent peptides containing the original Sox chromophore were also prepared as previously described.
Fluorescence Experiments. • a. Fluorescence analysis of 8-hydroxyquinoline click products. A 96-well microtier plate was used in the experiments for preliminary examination of fluorescence properties. The overall volume in each well was 200 microliters. Individual reactions contained the crude product from the click chemistry reaction (10 micromolar dissolved in DMSO), MgCl2 (10 mM), NaCl (150 mM) and HEPES (50 mM) at 25° C. (pH 7.4). The fluorescence spectra were recorded with fixed excitation at 370 nm and emission at 525 nm. Based on the preliminary screening, selected products were then synthesized in larger quantities and the quantum yields of the corresponding hydroxyquinoline derivatives were determined.

Series [2] can be described thus: Quantum yield determination (quinine sulphate standard). To be noted: for quantum yield Φ: with reference to quinine sulphate, 4 micromolar oxine derivative, 50 mM MgCl2, 20 mM HEPES (pH 7.4). As for the experimental part: as §1, §2
c. Quantum yield determination. The quantum yield (Φ) was determined in 20 mM HEPES (pH 7.4). Quinine sulphate dihydrate (QS, Fluka, puriss. for fluorescence) in 0.1 M H2SO4 was used as a standard (Φ=0.55). A 4 micromolar solution of the corresponding oxine derivative with 50 mM MgCl2 was compared to a 4 micromolar solution of quinine sulfate to assure that the absorbance (A360) is less than 0.05 at identical excitation wavelengths. The following equation was used to calculate the quantum yield: Φ=IAQSΦQS/AIQS where A=A360 and I=integrated fluorescence intensity (λex=360 nm). The calculated Φ assumes that the refractive index of 0.1 M H2SO4 is identical to that of 20 mM HEPES (pH 7.4). […]

Series [3] is described as follows: Observation of oxidation of the chromophore.
Series [4] is described as follows: Extinction coefficient determination. On the procedure:
1. Stock solutions of the peptides were prepared in doubly deionized water and concentrations were determined by UV-Vis (based on the determined extinction coefficient of the fluorophore moiety, either 1 (Sox), ε355=8247 M^−1 cm^−1 or 10u (Clk), ε360=7905 M^−1 cm^−1 in 0.1 M NaOH with 1 mM Na2EDTA). An average of the values from three separate solutions, each prepared using a different volume of the stock solution, was read on UV-Vis spectrophotometer. Purified peptide stock solutions could be stored at 4° C. for at least 6 months or −20° C. for longer periods.
b. Extinction coefficient determination. Extinction coefficients of 1 and 10u were measured in 50 mM HEPES (pH 7.0), 150 mM NaCl. The εmax values were determined by plotting absorbance at 360 nm versus concentration for four chromophore solutions with concentrations between 20 and 60 micromolar and including 1 mM MgCl2.

In the case of `Cc1ccc2c(C=O)ccc(O)c2n1` [Compound 2, 5-Carbaldehyde-8-Hydroxy-2-methylquinoline, reference compound], in series [1] (10 mM MgCl2, pH 7.4), the “excitation and emission wavelengths compared with 1 (in words)” value is “shorter λem”. In series [2] (10 μM compound, 10 mM MgCl2, pH 7.4), the “quantum yield compared with 1 (in words)” value was “improved quantum yield”. Further, the “stability of the aldehyde group (in words)” value in series [3] is “readily oxidized”.
Take `Oc1ccc(-n2cc(C3=CCCCC3)nn2)c2cccnc12` [Compound 10a, 8-Hydroxy-5-(4-cyclohexenyl-1H-1,2,3-triazol-1-yl)quinoline]: in series [1], the λem came out at 522 nm and the λex stood at 371 nm. Further, the “quantum yield Φ” value in series [2] amounted to 0.033.
As for `Oc1ccc(-n2cc(-c3ccc(Br)cc3)nn2)c2cccnc12` [Compound 10u, 8-Hydroxy-5-(4-(4-bromophenyl)-1H-1,2,3-triazol-1-yl)quinoline], in series [1], the λem turned out to be 525 nm and the λex was 375 nm. For the same compound, the “improvement in quantum yield compared to 10a” value in series [2] (compared to 10a (Φ=0.033)) came out at 3.5 fold. Further, the “quantum yield Φ” value in series [2] amounted to 0.111. Besides, the “extinction coefficient ε355” value in series [4] (Example 1, 50 mM HEPES (pH 7.0), 150 mM NaCl, 1 mM MgCl2) is 7,905 cm^−1M^−1. Besides, in series [4] (in 0.1 M NaOH with 1 mM Na2EDTA), the “extinction coefficient ε360” value was 7905 M⁻¹ cm⁻¹.
